Entries after “also recorded” stand apart in the source; their conditions may differ. Where two headings read alike, the source gives them in different places.
Legend:
Type in all cases: cell-based
CXCR4 = CXCR4 (Homo sapiens, UniProt P61073); assay: primary 1536 w β-arrestin recruitment assay (FRET, β-lactamase reporter) in U2OS cells overexpressing CXCR4; set-up: host or cells: U2OS
Protocol: In an effort to identify CXCR4 activators from the NIH Molecular Library Small Molecule Repository (MLSMR), a primary screening assay was developed to measure β-arrestin recruitment to the activated G-protein coupled receptor by Florescence Resonance Energy Transfer (FRET) in U2OS cells overexpressing the CXCR4 receptor engineered with a β-lactamase (bla) reporter system (Invitrogen cat #K1779). CXCR4-bla cells plated in 1536 w were stimulated in the presence of 10 uM compound concentration. […] Using this approach, 370,620 compounds from the NIH MLSMR were successfully screened and 303 hits were identified (hit rate=0.08%; Z′=0.83). […] These compounds were graded according to activity and structure resulting in 86 compounds that met criteria as potential CXCR4 agonists for further characterization.
Chemical stability, synthetic tractability, solubility and complete dose response and potency criteria led to the prioritization of the 5-aryl-2-cyclopropyl oxazole scaffold, represented by primary hit Compound 2 (Table 1). Early structure-activity relationship was established around the 5-aryl-2-cyclopropyl oxazole core with commercially available analogs with diverse substituents in the sulfonanilide ring of the scaffold. […] Keeping the 2-OMe substituent constant a small set of electron withdrawing and electron rich substituents at the 5-position of the anilide ring were screened (entries 16-19).

[1] = system: CEM-CCRF human lymphoblast cells; assay: Transwell migration assay in CEM-CCRF lymphoblasts
Summary of the method: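 CEM-CCRF cells at 5.0×10^5 cells/mL in RPMI 1640, preincubated 1 h at 37 °C, 5% CO2, then allowed to migrate in a 96-well transwell system for 3 h at 37 °C. Migrated cells in the receiver tray quantified by ATPLite luminescence.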

miR-29a = miR-29a expression in murine fibroblasts; settings: 24 h; listed as UCUF-965
Protocol: Total RNA was extracted with TRIzol reagent (Invitrogen, Carlsbad, CA, USA) according to the manufacturer's established protocol. RNA was converted into cDNA using the SuperScript First-Strand Synthesis System (Invitrogen, Life Technologies). Primers and probes for mouse miR-15b and miR-29a were acquired from Applied Biosystems TaqMan gene expression assay (Applied Biosystems, Foster City, CA). Quantitative PCR was performed on a BIO-RAD CFX96 according to the manufacturer's instructions. Quantitative values of genes of interest are normalized based on U6. Samples (n=5 per group) were amplified in triplicate and results were averaged for each individual sample. The ΔΔCT method was used to calculate relative gene expression. Results are reported as mean±SD.
The expression of specific micro-RNA levels reported to be crucial in the wound-healing process were measured in order to validate and correlate the in vitro activity of UCUF-965 as a selective CXCR4 receptor modulator to micro-RNA expression. Murine diabetic and non-diabetic fibroblasts were cultured with increasing concentrations of the compound. The cells were incubated for 24 h and then total cellular RNA was isolated to examine the ability of the compound to correct the abnormal expression levels of miR-15b, miR-29a, and miR-146a. […]

miR-146a = miR-146a expression in murine fibroblasts; settings: 24 h; listed as UCUF-965
Protocol: The expression of specific micro-RNA levels reported to be crucial in the wound-healing process were measured in order to validate and correlate the in vitro activity of UCUF-965 as a selective CXCR4 receptor modulator to micro-RNA expression. Murine diabetic and non-diabetic fibroblasts were cultured with increasing concentrations of the compound. The cells were incubated for 24 h and then total cellular RNA was isolated to examine the ability of the compound to correct the abnormal expression levels of miR-15b, miR-29a, and miR-146a. The effect of UCUF-965 on expression of miR-15b, which inhibits angiogenesis and wound repair was examined.

Sequence of CXCR4 (P61073 whole entry): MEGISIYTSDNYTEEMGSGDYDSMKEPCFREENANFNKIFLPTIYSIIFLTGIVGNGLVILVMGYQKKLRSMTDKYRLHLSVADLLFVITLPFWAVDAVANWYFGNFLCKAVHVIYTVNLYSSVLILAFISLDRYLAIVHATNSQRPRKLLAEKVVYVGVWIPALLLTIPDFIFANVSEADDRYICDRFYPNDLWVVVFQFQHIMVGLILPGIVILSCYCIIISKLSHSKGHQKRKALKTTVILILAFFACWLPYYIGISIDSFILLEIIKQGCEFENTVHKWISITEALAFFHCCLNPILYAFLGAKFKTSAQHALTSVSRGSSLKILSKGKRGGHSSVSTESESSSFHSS

Compound: COc1ccc(OC)c(NS(=O)(=O)c2ccc(-c3cnc(C4CC4)o3)cc2)c1 [Oxazole Entry 19, 4-(2-Cyclopropyloxazol-5-yl)-N-(2,5-dimethoxyphenyl)benzenesulfonamide]
- EC50 (CXCR4; 1536 w screening platform): 1100 nM
- CXCR4 b-arrestin Emax (%) (CXCR4; 1536 w, normalized to SDF-1α): 60%
- migration activity (words) ([1]; listed as UCUF-728): induced migration with similar EC50 and Emax as the B-arrestin recruitment activity; also recorded: SDF-1α-mediated response was potentiated; also recorded: dose-dependent partial activation of CEM-CCRF cell migration

Compound: CCOc1ccccc1-c1nnc2n1N=C(c1ccc(N3CCCC3)cc1)CS2 [Thiadiazine Entry 23, 3-(2-ethoxyphenyl)-6-(4-(pyrrolidin-1-yl)phenyl)-7H-[1,2,4]triazolo[3,4-b][1,3,4]thiadiazine]
- miR-29a expression (miR-29a): significant decrease of miR-29a levels; also recorded: suppression of miR15b and miR29a
- fold lower potency in migration vs β-arrestin recruitment assay [1]: 10 fold
- migration activity (words) [1]: partial activator of CXCR4-mediated cell migration
- EC50 ([1]; Homo sapiens, read-out: Migration log EC50, log value, n=3 (converted)): 398 nM
- Migration CEM Emax (%) ([1]; listed as UCUF-965): 31%
- EC50 ([1]; read-out: Migration CEM EC50, listed as UCUF-965): 400 nM
- miR-146a expression (miR-146a): increase of miR-146a levels; also recorded: induction of miR146a

Source: patent publication US20250136617A1 (The Regents of the University of Colorado, A Body Corporate, priority 2022, published 2025)
